A short description of test [1]: Antifungal activity against Scedosporium aurantiacum sputum isolate CNM-CM-2631 at 48 hrs. In kind it is functional.
In test [2] the test system is Scedosporium apiospermum. Briefly: Antifungal activity against Scedosporium apiospermum isolates at 48 hrs.
The test system of test [3] is Scedosporium aurantiacum. As to the kind of experiment: Antifungal activity against Scedosporium aurantiacum corneal isolate CNM-CM-2923 at 48 hrs. Conditions: Cornea. In kind it is functional.
Test [4] can be described thus: Antifungal activity against Scedosporium aurantiacum bronchial aspirate isolate CNM-CM-4183 at 48 hrs. It is filed as functional.
Test [5] deals with Scedosporium aurantiacum. As to the kind of experiment: Antifungal activity against Scedosporium aurantiacum ear swab isolate CNM-CM-2846 at 48 hrs. In kind it is functional.

This passage reports MIC results from ChEMBL document CHEMBL1142168, “Prevalence and susceptibility testing of new species of pseudallescheria and scedosporium in a collection of clinical mold isolates” (2007).

SMILES strings stand for the structures. Converted amounts (≈) assume the structure as drawn.

One may read the MIC as the least concentration at which growth counts as inhibited. Read a high MIC as weaker potency. For `C[C@@H]1[C@H](O)[C@@H](C)/C=C/C=C/C=C/C=C/C=C/C=C/C=C/[C@H](O[C@@H]2O[C@H](C)[C@@H](O)[C@H](N)[C@@H]2O)C[C@@H]2O[C@](O)(C[C@@H](O)C[C@@H](O)[C@H](O)CC[C@@H](O)C[C@@H](O)CC(=O)O[C@H]1C)C[C@H](O)[C@H]2C(=O)O` [AMPHOTERICIN B], the MIC came to 4 µg/mL (≈ 4.33 µM) in test [1]; 0.25 µg/mL (≈ 0.271 µM) in test [2]; 8 µg/mL (≈ 8.66 µM) in test [3]; 8 µg/mL (≈ 8.66 µM) in test [4]; 16 µg/mL (≈ 17.3 µM) in test [5].
As to `CCC(C)n1ncn(-c2ccc(N3CCN(c4ccc(OCC5COC(Cn6cncn6)(c6ccc(Cl)cc6Cl)O5)cc4)CC3)cc2)c1=O` (stereo not given) [ITRACONAZOLE], the minimal inhibitory concentration (MIC) in test [1] was found to be 2 µg/mL (≈ 2.83 µM); in test [2] it was 0.25 µg/mL (≈ 0.354 µM); in test [3], 16 µg/mL (≈ 22.7 µM); in test [4] it was 16 µg/mL (≈ 22.7 µM); in test [5] it was 8 µg/mL (≈ 11.3 µM).
As to `C[C@@H](c1ncncc1F)[C@](O)(Cn1cncn1)c1ccc(F)cc1F` [VORICONAZOLE], the MIC amounted to 0.5 µg/mL (≈ 1.43 µM) in test [1]; 0.125 µg/mL (≈ 0.358 µM) in test [2]; 16 µg/mL (≈ 45.8 µM) in test [3]; 0.5 µg/mL (≈ 1.43 µM) in test [4]; 1 µg/mL (≈ 2.86 µM) in test [5].
